Source: the supplement of paper PMC10307832

Columns and labels:
Experiment in all cases: relative viability (nuclei count vs DMSO), 5 days (fraction); higher = more cells survive
Ispinesib = compound: Cc1ccc(C(=O)N(CCCN)[C@@H](c2nc3cc(Cl)ccc3c(=O)n2Cc2ccccc2)C(C)C)cc1 [Ispinesib]
Method in brief: (§1)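 Five library-drug doses spaced by √10 were pinned onto vehicle-anchored 1536-well plates of lung cancer cell lines that had been kept overnight at 37 °C. Cells went 5 days without medium change, then were fixed, permeabilised and Hoechst-stained together, imaged at 4× and counted by MetaXpress. Viability is the ratio of treated-well to vehicle-well nuclei, taken as a median over plates. Plates required control CV below 25% and at least one doubling.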

Linsitinib = compound: C[C@]1(O)C[C@@H](c2nc(-c3ccc4ccc(-c5ccccc5)nc4c3)c3c(N)nccn32)C1 [Linsitinib]
Method in brief: as §1

Linsitinib + OSI-027 = compound: C[C@]1(O)C[C@@H](c2nc(-c3ccc4ccc(-c5ccccc5)nc4c3)c3c(N)nccn32)C1 [Linsitinib] + COc1cccc2cc(-c3nc([C@H]4CC[C@H](C(=O)O)CC4)n4ncnc(N)c34)[nH]c12 [OSI-027] (partner 0.5 µM)
Method in brief: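 The day after seeding in 1536-well plates, lung cancer cell lines were treated by pin tool with a single drug, or with a fixed anchor-drug dose together with five library-drug doses (not always all listed) in √10 steps. After 5 days, a combined fix-and-stain solution (final 0.05% Triton X-100, 1% formaldehyde, 1 ug/ml Hoechst) was added. Nuclei counted on 4× images gave relative viability as treated counts over vehicle counts, reported as the median of duplicate plates.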

Cell Line	relative viability (Ispinesib; 0.001 µM)	relative viability (Ispinesib; 0.003162 µM)	relative viability (Ispinesib; 0.01 µM)	relative viability (Ispinesib; 0.03162 µM)	relative viability (Ispinesib; 0.1 µM)	relative viability (Linsitinib; 0.01 µM)	relative viability (Linsitinib; 0.03162 µM)	relative viability (Linsitinib; 0.1 µM)	relative viability (Linsitinib; 0.3162 µM)	relative viability (Linsitinib; 1 µM)	relative viability (Linsitinib; 1 µM, anchor plate)	relative viability (Linsitinib + OSI-027; first compound 0.01 µM)	relative viability (Linsitinib + OSI-027; first compound 0.03162 µM)	relative viability (Linsitinib + OSI-027; first compound 0.1 µM)	relative viability (Linsitinib + OSI-027; first compound 0.3162 µM)	relative viability (Linsitinib + OSI-027; first compound 1 µM)
NCI-H1793	0.977	1	1.19	0.69	0.201	0.867	0.906	0.917	0.757	0.682	0.903	0.25	0.314	0.246	0.205	0.175
CAL-12T	1.05	1.13	1.1	0.664	0.18	1.01	0.917	0.951	0.752	0.879	0.839	0.625	0.688	0.679	0.351	0.297
NCI-H1993	0.959	1.05	1.05	0.912	0.651	1.03	0.916	0.879	0.622	0.607	0.759	0.502	0.534	0.525	0.407	0.679
LXF-289	0.98	1.02	1.13	0.773	0.178	1.04	0.974	1.04	0.768	0.977	0.976	0.769	0.757	0.795	–	0.515
NCI-H1792	1.18	1.31	0.995	0.492	0.329	0.932	0.897	0.712	0.455	0.33	0.571	–	0.728	0.619	0.481	0.292
LU99A	0.976	1.01	1.03	0.303	0.269	0.915	0.968	0.899	0.483	0.738	0.555	0.32	0.314	0.299	0.245	0.24
SW 1573	1.01	0.973	1.1	0.666	0.343	1.04	1.01	0.98	0.796	0.723	0.801	0.772	0.524	0.502	0.393	0.282
COR-L23	1.11	1.04	1.19	0.512	0.171	0.975	1.04	1.07	0.911	0.998	0.89	0.626	0.968	0.804	0.52	0.509
NCI-H1755	0.972	1.1	1.1	0.745	0.351	0.976	1.01	1.01	0.769	0.915	0.996	0.681	0.77	0.737	0.356	0.487
LOU-NH91	0.962	1.09	1.05	0.646	0.287	0.873	0.943	0.991	1	0.801	0.942	0.714	0.704	0.7	0.712	0.527
